According to US4742083A, “Method of relieving pain and inflammatory conditions employing substituted salicylamides” (Lever Brothers Company, priority 1985, dated 1988):

What was measured:
[1] = single dose oral route, Osborne-Mendel white rats, sixteen females; cited from earlier work
[2] = test system: inflammation of mice ears caused by antibiotic A-23187; assay: Reduction of A-23187-induced ear edema by ear weights, Examples 8-14; type: in vivo, hairless outbred mice (Skh:hr-1 strain); conditions: for Reduction in Edema (%), Study B: Day 2, 1.5 micromole per 10 microliter, A-23187 (4 nmole), sacrifice from 4 hours; for antiinflammatory activity (in words): under the test conditions of Table 2
Text: (§1) Acute inflammation is induced by the application of 4 nano mole of the antibiotic A-23187 to the ears of young, male, adult hairless outbred mice (Skh:hr-1 strain). Thereafter, one of the compounds AN-10, AMCF3-8, ACBXE-9, acryloyl AN-10, S-4-F and SAN-6 is applied to the affected ears and the degree of reduction in edema (inflammation) noted.
The method used in the subject Examples differs from the method used in the preceding Examples (4 through 7) in two respects.
Secondly, in the expression of the data, the objective parameter of ear weights is used as the sole data source (for the reduction of edema) as erythematous responses are not recorded. Ear weights are determined by sacrificing the animals four hours after initial application of the antibiotic A-23187 or other control material by the use of CO2 gas. Thereafter, the ears are excised by cutting along the characteristic ridge readily discernible along the inner aspect of the ears. Wet and dry ear weights are used to determine the extent of the edema or inflammation present.
In Study A, 28 test animals are randomized into four treatment groups of seven each and subjected to the following ear treatment regimen:
Each animal is dosed with a treatment consisting of a 10 microliter quantity of the assigned test material solution (or pure acetone in the case of the animals of Group D) applied to the outer aspect of both ears, i.e., 10 microliter of test material per ear. The concentrations of the respective materials in acetone solution are such that a 10 microliter dose of a solution of the antibiotic A-23187 contains 4 nano mole of such antibiotic. The corresponding quantity in the case of the AN-10 in acetone solution is 1.5 micromole. The animals of Groups A and B are initially treated with the acetone solution of A-23187. In the case of the animals of Group B alone, 10 microliter of the acetone solution of AN-10 is applied to the affected ears 1/2 hour after the application of the above-mentioned quantity of a solution in acetone of the antibiotic A-23187. The animals of Group C receive a 10 microliter dose per ear of the AN-10 in acetone solution alone. The animals of Group D receive a dose of 10 microliter per ear of pure acetone. All the test subjects are sacrificed four hours after the application of A-23187 to the animals of Groups A and B or the other test materials in the case of the animals of Groups C and D. The results are summarized in Table 2 noted below.
(§2) A second group of studies (Study B) is conducted on two consecutive days with two sets of mice (totalling 80 animals) received from the same shipment.
On Day 2, using the second set of 40 mice, sub-divided into 8 groups of 5 each, the six compounds in question are applied as acetone solutions in the manner described under Study A to mice ears inflamed with A-23187 again, as described in Study A above. As with the studies conducted on Day 1, the remaining two groups of 5 animals each serve as controls and their ears are dosed with A-23187 and acetone respectively.
(§3) The amount of each salicylamide compound applied is kept constant, for Days 1 and 2, at 1.5 micromole per 10 microliter of test solution. Sacrifice begins four hours after application A-23187, on both days, and the results are recorded. Table 2 summarizes the results of the regimen of testing involved with each one of the 30 animals in question on Day 2 with the remaining 10 animals serving as controls as already noted.

[3] = test system: inflammation of mice ears caused by calcium ionophore (A-23187); assay: Reduction of A-23187-induced ear inflammation (edema and erythema), Examples 4-7, each animal its own control; type: in vivo, male outbred hairless mice; conditions: for anti-inflammatory activity (in words): at the concentration used (1.5 micromole topical); for reduction of inflammation (reference anti-inflammatories): topical, 30 minutes after application of A-23187
Text: In a group of 5 male outbred hairless mice, inflammation is induced on their ears by the topical application thereto of 4.0 nmole in acetone solution (total volume 10 microliter) of the known divalent calcium ionophore (antibiotic A-23187), which is derived from Streptomyces chartreusis and is a member of a known class of compounds showing ionophoric activity. See, e.g. Pressman, B. C., "Biological Applications of Ionophores", Ann. Rev. Biochem., 45, 501, 1976. […] See Marks, F., Furstenberger, G., and Kownatzki, E., "Prostaglandin E-mediated Mitogenic Stimulation of Mouse Epidermis in vivo by divalent cation ionophore A-23187 and by tumor promoter 12-O-tetradecanoyl phorbol-13-acetate, Cancer Res., 41, 696, 1981.
In each animal only one ear is treated, the other untreated ear serving as a control.
In Examples 4, 5 and 6 the compounds AN-10, APCF3-8 and AMCF3-8, respectively, are topically applied to the treated ears of different groups of five male outbred hairless mice 30 minutes following the topical application thereto of the ionophore A-23187. Specifically, 1.5 micromole of the amido compound in acetone solution (total volume 10 microliters) is applied topically to treated male outbred hairless mice ears 30 min. after topical application thereto of a calcium ionophore (A-23187, 4.0 nmole total volume to 10 microliter) in acetone. As already noted, in each case, each animal serves as its own control in that only one ear is subjected to said test regime while the other ear is left untouched. Erythema and edema are assessed 4 hrs. after application of the ionophore. In Control Example 7, 3,4',5-tribromosalicylanilide (TBS) is applied in the same manner.

untreated mice ears = assay: Inflammatory potential on untreated mice ears (Study B, Day 1); type: in vivo, hairless outbred mice (Skh:hr-1 strain); conditions: 1.5 micromole per 10 microliter on untreated ears
Description: as §1, §2
The first batch of 40 animals is divided into 8 groups of 5 each. […] The remaining two groups of 5 animals each serve as controls and their ears are dosed with A-23187 and acetone respectively.
as §3

mice backs (skin) = conditions: topical application to mice backs, in vivo tumor promotion studies; cited from earlier work
[4] = comparison; oral, rats; cited from earlier work
[5] = 1.5 micromole topical, 30 min after A-23187 (4.0 nmole), assessed 4 hrs after ionophore

SMILES | Reduction in Edema (%), Study B ([2]; ear weights) [%] | antiinflammatory activity (in words) [2] | anti-inflammatory activity (in words) [3] | noticeable inflammation (inflammatory potential) (untreated mice ears) | also measured
CCCCCCCCCC(=O)c1ccc(O)c(C(=O)Nc2ccc([N+](=O)[O-])cc2)c1 [AN-10] | 81 | significant antiinflammatory activity | effective anti-inflammatories | none of the six compounds being tested cause any noticeable inflammation | LD50 [1]: greater than 2000 mg./kg.; Reduction in Edema (%), Study A ([2]; Study A, 1.5 micromole per ear, 1/2 hour after A-23187 (4 nmole), sacrificed at 4 hours, ear weights): 55%
COc1ccc2c(c1)c(CC(=O)O)c(C)n2C(=O)c1ccc(Cl)cc1 [indomethacin] |  |  |  |  | reduction of inflammation (reference anti-inflammatories) [3]: reduction of inflammation
CNc1ccc2oc(C[C@H]3O[C@@]4(CC[C@H]3C)O[C@H]([C@H](C)C(=O)c3ccc[nH]3)[C@H](C)C[C@H]4C)nc2c1C(=O)O [A-23187] |  |  |  |  | acute inflammation on treated ears after topical A-23187 ([3]; within 4 hours following topical application, time and dose dependent): Acute inflammation develops; skin irritation (mice backs (skin)): potent ability to cause skin irritation
CCCCCCCC(=O)c1ccc(O)c(C(=O)Nc2ccc(C(F)(F)F)cc2)c1 [APCF3-8] |  |  | effective anti-inflammatories |  | 
CC(=O)Oc1ccccc1C(=O)O [aspirin, acetylsalicylic acid] |  |  |  |  | LD50 (comparable toxicity of aspirin) [4]: about 1.75 g/kg. body weight
CCCCCCCC(=O)c1ccc(O)c(C(=O)Nc2cccc(C(F)(F)F)c2)c1 [AMCF3-8] | 81 | significant antiinflammatory activity | effective anti-inflammatories | none of the six compounds being tested cause any noticeable inflammation | 
CCCCc1ccc(O)c(C(=O)Nc2cccc(C(F)(F)F)c2)c1 [S-4-F] | 70 | significant antiinflammatory activity |  | none of the six compounds being tested cause any noticeable inflammation | 
O=C(Nc1ccc(Br)cc1)c1cc(Br)cc(Br)c1O [TBS, 3,4',5-tribromosalicylanilide] |  |  | essentially inactive |  | Reduction in Edema (%) [3, 5]: 12%; Reduction in Erythema (%) [3, 5]: 35%
C[C@]12CCC(=O)C=C1CC[C@@H]1[C@@H]2[C@@H](O)C[C@@]2(C)[C@H]1CC[C@]2(O)C(=O)CO [hydrocortisone] |  |  |  |  | reduction of inflammation (reference anti-inflammatories) [3]: reduction of inflammation
CCCCCCCCC(=O)c1ccc(O)c(C(=O)Nc2cccc(C(=O)OCC)c2)c1 [ACBXE-9] | 76 | significant antiinflammatory activity |  | none of the six compounds being tested cause any noticeable inflammation | 
C=CC(=O)Oc1ccc(C(=O)CCCCCCCCC)cc1C(=O)Nc1ccc([N+](=O)[O-])cc1 [acryloyl AN-10] | 82 | significant antiinflammatory activity |  | none of the six compounds being tested cause any noticeable inflammation | 
CCCCCCc1ccc(O)c(C(=O)Nc2ccc([N+](=O)[O-])cc2)c1 [SAN-6] | 59 | significant antiinflammatory activity |  | none of the six compounds being tested cause any noticeable inflammation | 
